# Experimental data taken from ChEMBL document CHEMBL1147514 (Bioorg Med Chem Lett, 2004).
# Where “and” joins values, the source holds several entries; their conditions need not be identical. Equal entries are not always repeated.
# Columns and labels:
# [1] = species on record: Mus musculus; assay: Blockage of antinociceptive activity of nicotine was tested in the mouse hot plate test; format: functional
# [2] = target: T1, Neuronal acetylcholine receptor; alpha4/beta2 (Rattus norvegicus, UniProt P09483+P12390); assay: Inhibition of [3H]epibatidine binding to Nicotinic acetylcholine receptor alpha4-beta2 from rat membranes
# [3] = species on record: Mus musculus; assay: Antinociceptive activity was tested in the mouse tail-flick test; format: functional
# [4] = species on record: Mus musculus; assay: Antinociceptive activity was tested in the mouse hot plate test; format: functional
# [5] = target: Neuronal acetylcholine receptor subunit alpha-7 (Rattus norvegicus, UniProt Q05941); assay: Inhibition of [125I]-iodo-MLA binding to Nicotinic acetylcholine receptor alpha-7 from rat brain membranes; format: cell membranes, Membrane
# [6] = target: Neuronal acetylcholine receptor; alpha4/beta4 (Rattus norvegicus) (UniProt P09483+P12392); assay: Functional potency measured as maximum stimulation at rat Nicotinic acetylcholine receptor alpha4-beta4 expressed in Xenopus oocytes; format: cell-based; conditions: Oocyte
# [7] = target: Neuronal acetylcholine receptor; alpha3/beta4 (Rattus norvegicus) (UniProt P04757+P12392); assay: Functional potency measured as maximum stimulation at rat Nicotinic acetylcholine receptor alpha3-beta4 expressed in Xenopus oocytes; format: cell-based; conditions: Oocyte
# [8] = target: Neuronal acetylcholine receptor; alpha4/beta2 (Rattus norvegicus) (UniProt P09483+P12390); assay: Functional potency measured as maximum stimulation at rat Nicotinic acetylcholine receptor alpha4-beta2 expressed in Xenopus oocytes; format: cell-based; conditions: Oocyte
# [9] = target: T1, Neuronal acetylcholine receptor; alpha4/beta2; assay: Binding affinity towards rat Nicotinic acetylcholine receptor alpha4-beta2 expressed in Xenopus oocytes using [3H]epibatidine as radioligand; format: cell-based, Oocyte
# [10] = target: Neuronal acetylcholine receptor; alpha3/beta2 (Rattus norvegicus, UniProt P04757+P12390); assay: Binding affinity towards rat Nicotinic acetylcholine receptor alpha3-beta2 expressed in Xenopus oocytes using [3H]epibatidine as radioligand; format: cell-based, Oocyte
# [11] = target: Neuronal acetylcholine receptor; alpha2/beta2 (Rattus norvegicus, UniProt P12389+P12390); assay: Binding affinity towards rat alpha2-beta2 neuronal nAChR expressed in Xenopus oocytes using [3H]epibatidine as radioligand; format: cell-based, Oocyte
# [12] = target: T1, Neuronal acetylcholine receptor; alpha4/beta2; assay: [3H](+/-)-epibatidine binding to Nicotinic acetylcholine receptor alpha4-beta2 from rat membranes
# [13] = target: T1, Neuronal acetylcholine receptor; alpha4/beta2; assay: Inhibition of [3H]nicotine binding to Nicotinic acetylcholine receptor alpha4-beta2 from rat membranes
# [14] = species on record: Mus musculus; assay: Antinociceptive activity was tested in the mouse tail-flick test from ref 15; format: functional
# [15] = species on record: Mus musculus; assay: Spontaneous activity in mice from ref 15; format: functional
# [16] = species on record: Mus musculus; assay: Drug discrimination in mice from ref 15
# [17] = species on record: Mus musculus; assay: Antinociceptive activity was tested in the mouse tail-flick test from ref 17; format: functional
# [18] = tested on: Mus musculus; assay: Antinociceptive activity was tested in the mouse tail-flick test at 15 mg/kg; format: functional
# [19] = species on record: Mus musculus; assay: Blockage of Antinociceptive activity of nicotine was tested in the mouse tail flick test; format: functional
# [20] = tested on: Mus musculus; assay: Antinociceptive activity was tested in the mouse hot plate test at 15 mg/kg; format: functional
# [21] = species on record: Mus musculus; assay: Blockage of Antinociceptive activity of nicotine was tested in the mouse hot plate test; format: functional
# [22] = target: T1, Neuronal acetylcholine receptor; alpha4/beta2; assay: Functional potency measured as stimulation at rat Nicotinic acetylcholine receptor alpha4-beta2 expressed in Xenopus oocytes; format: cell-based, Oocyte
# [23] = species on record: Mus musculus; assay: Antinociceptive activity was tested in the mouse tail-flick test at 112 nM; format: functional
# [24] = target: T2, Neuronal acetylcholine receptor; alpha4/beta4 (Rattus norvegicus, UniProt P09483+P12392); assay: Binding affinity towards rat Nicotinic acetylcholine receptor alpha4-beta4 expressed in Xenopus oocytes using [3H]epibatidine as radioligand; format: cell-based, Oocyte
# [25] = target: T3, Neuronal acetylcholine receptor; alpha3/beta4 (Rattus norvegicus, UniProt P04757+P12392); assay: Functional potency measured as stimulation at rat Nicotinic acetylcholine receptor alpha3-beta4 expressed in Xenopus oocytes; format: cell-based, Oocyte
# [26] = target: Neuronal acetylcholine receptor; alpha2/beta4 (Rattus norvegicus, UniProt P12389+P12392); assay: Binding affinity towards rat Nicotinic acetylcholine receptor alpha2-beta4 expressed in Xenopus oocytes using [3H]epibatidine as radioligand; format: cell-based, Oocyte
# [27] = target: T3, Neuronal acetylcholine receptor; alpha3/beta4; assay: Binding affinity towards rat Nicotinic acetylcholine receptor alpha3-beta4 expressed in Xenopus oocytes using [3H]epibatidine as radioligand; format: cell-based, Oocyte
# [28] = target: T2, Neuronal acetylcholine receptor; alpha4/beta4; assay: Functional potency measured as stimulation at rat Nicotinic acetylcholine receptor alpha4-beta4 expressed in Xenopus oocytes; format: cell-based, Oocyte
# [29] = target: T1, Neuronal acetylcholine receptor; alpha4/beta2; assay: inhibition of [3H]nicotine binding to alpha4-beta2 nACh receptor from rat membranes from ref 18
# [30] = tested on: Mus musculus; assay: Blockage of antinociceptive activity was tested in the mouse hot plate test at 0.01 mg/kg; format: functional
# [31] = tested on: Mus musculus; assay: Blockage of antinociceptive activity was tested in the mouse tail-flick test at 0.01 mg/kg; format: functional
# [32] = species on record: Mus musculus; assay: Antinociceptive activity was tested in the mouse tail-flick test at 32.5 nM; format: functional
# [33] = species on record: Mus musculus; assay: animal or person; conditions: Tail
# [34] = species on record: Mus musculus; assay: animal or person
# Sequence of Neuronal acetylcholine receptor subunit alpha-7 (Q05941 whole entry): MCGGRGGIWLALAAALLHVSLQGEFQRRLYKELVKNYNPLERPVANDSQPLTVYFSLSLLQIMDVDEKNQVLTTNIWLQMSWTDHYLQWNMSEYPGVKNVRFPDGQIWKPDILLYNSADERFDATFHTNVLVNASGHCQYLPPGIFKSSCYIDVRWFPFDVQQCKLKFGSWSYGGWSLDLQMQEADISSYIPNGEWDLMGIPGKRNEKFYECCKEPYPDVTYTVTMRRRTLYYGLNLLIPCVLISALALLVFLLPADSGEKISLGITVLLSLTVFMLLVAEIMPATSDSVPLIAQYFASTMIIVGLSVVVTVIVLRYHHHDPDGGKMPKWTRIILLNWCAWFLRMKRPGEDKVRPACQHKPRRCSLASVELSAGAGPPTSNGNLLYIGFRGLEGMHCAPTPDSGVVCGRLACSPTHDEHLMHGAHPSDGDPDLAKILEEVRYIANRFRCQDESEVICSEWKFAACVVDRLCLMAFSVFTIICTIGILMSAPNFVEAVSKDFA
# Sequence of Neuronal acetylcholine receptor; alpha2/beta2 (P12389 whole entry): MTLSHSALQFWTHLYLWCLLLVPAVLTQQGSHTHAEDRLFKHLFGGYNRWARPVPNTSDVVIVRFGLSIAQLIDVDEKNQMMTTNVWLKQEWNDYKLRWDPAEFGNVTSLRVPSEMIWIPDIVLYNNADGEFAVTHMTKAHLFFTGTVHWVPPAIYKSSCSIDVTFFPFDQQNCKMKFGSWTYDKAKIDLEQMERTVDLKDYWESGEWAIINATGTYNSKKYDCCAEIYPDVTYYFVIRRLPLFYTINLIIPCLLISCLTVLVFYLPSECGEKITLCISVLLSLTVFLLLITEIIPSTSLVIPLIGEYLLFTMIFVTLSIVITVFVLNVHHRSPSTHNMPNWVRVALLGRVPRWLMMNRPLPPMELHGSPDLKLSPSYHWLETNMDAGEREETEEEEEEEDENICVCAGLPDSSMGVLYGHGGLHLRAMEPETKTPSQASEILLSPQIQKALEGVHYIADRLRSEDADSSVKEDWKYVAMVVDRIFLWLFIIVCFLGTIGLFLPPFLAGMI
# Sequence of Neuronal acetylcholine receptor; alpha2/beta2 (P12390 whole entry): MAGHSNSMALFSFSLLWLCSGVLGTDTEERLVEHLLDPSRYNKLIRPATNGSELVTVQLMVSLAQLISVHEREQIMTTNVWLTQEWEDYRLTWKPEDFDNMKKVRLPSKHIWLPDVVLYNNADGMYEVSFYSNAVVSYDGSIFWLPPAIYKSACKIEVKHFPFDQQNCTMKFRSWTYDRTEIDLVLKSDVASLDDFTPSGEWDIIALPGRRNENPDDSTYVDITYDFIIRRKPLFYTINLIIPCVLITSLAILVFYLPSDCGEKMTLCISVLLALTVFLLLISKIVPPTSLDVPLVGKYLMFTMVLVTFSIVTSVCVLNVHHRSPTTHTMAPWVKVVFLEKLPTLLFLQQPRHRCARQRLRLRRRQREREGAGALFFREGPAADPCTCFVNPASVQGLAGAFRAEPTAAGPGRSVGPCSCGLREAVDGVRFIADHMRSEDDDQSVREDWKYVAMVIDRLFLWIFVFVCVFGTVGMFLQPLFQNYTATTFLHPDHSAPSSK
# Sequence of Neuronal acetylcholine receptor; alpha2/beta4 (P12389 whole entry): as the sequence (P12389 whole entry) above
# Sequence of Neuronal acetylcholine receptor; alpha2/beta4 (P12392 whole entry): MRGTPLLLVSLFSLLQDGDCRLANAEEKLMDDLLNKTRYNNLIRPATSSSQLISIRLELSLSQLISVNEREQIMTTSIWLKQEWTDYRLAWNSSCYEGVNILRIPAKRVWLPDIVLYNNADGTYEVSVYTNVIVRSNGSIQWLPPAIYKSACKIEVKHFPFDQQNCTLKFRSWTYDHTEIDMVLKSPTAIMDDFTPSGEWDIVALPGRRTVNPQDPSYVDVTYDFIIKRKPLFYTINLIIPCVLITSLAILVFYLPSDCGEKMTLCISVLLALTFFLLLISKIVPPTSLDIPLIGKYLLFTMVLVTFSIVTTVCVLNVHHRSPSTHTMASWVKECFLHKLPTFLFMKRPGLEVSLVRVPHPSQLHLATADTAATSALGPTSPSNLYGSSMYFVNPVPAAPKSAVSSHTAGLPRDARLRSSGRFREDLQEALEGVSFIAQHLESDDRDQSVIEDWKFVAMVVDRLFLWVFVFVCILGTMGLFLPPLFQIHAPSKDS
# Sequence of Neuronal acetylcholine receptor; alpha3/beta2 (P04757 whole entry): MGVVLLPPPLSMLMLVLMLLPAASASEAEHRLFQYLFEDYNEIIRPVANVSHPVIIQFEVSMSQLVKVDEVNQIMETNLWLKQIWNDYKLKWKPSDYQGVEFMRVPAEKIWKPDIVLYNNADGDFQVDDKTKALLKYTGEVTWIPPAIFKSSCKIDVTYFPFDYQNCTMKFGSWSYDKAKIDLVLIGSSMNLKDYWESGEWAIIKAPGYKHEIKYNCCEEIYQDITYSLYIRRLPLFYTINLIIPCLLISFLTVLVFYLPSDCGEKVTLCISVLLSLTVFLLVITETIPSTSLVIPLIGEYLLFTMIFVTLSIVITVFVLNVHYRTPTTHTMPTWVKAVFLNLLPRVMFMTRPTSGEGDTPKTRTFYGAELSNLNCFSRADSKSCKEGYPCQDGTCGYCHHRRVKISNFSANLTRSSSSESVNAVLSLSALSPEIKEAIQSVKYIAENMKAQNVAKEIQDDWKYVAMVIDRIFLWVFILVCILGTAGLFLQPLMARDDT
# Sequence of Neuronal acetylcholine receptor; alpha3/beta2 (P12390 whole entry): as the sequence (P12390 whole entry) above
# T3 sequence (P04757 whole entry): as the sequence (P04757 whole entry) above
# T3 sequence (P12392 whole entry): as the sequence (P12392 whole entry) above
# T2 sequence (P09483 whole entry): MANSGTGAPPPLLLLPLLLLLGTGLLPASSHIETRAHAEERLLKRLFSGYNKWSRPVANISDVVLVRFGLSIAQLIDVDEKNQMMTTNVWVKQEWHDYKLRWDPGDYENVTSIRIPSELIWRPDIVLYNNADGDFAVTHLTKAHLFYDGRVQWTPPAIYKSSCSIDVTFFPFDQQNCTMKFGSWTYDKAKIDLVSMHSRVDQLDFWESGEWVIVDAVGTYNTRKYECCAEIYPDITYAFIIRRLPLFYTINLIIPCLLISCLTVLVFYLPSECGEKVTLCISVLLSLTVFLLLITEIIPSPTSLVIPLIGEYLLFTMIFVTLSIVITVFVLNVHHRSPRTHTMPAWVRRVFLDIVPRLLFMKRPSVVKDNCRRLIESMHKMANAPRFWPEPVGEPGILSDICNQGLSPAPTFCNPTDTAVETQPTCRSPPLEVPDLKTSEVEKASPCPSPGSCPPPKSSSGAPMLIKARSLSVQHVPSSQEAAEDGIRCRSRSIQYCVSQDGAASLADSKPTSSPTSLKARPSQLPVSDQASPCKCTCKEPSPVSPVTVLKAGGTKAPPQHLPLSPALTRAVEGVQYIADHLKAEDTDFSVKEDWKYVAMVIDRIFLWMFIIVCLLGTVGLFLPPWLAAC
# T2 sequence (P12392 whole entry): as the sequence (P12392 whole entry) above
# T1 sequence (P09483 whole entry): as the sequence (P09483 whole entry) above
# T1 sequence (P12390 whole entry): as the sequence (P12390 whole entry) above
structure (smiles),measurement,setting,value
Nc1cc(C2CC3CCC2N3)cnc1Cl (stereo unspecified),AD50,[1],0.03 µg/kg and 0.06 µg/kg
same,Ki,[2],0.01 nM
same,ED50,[3],20 µg/kg
same,ED50,[4],20 µg/kg
same,Ki,[5],13.9 nM
CC(=O)OCC[N+](C)(C)C,Max,[6],98%
same,Max,[7],100%
same,Max,[8],95%
Fc1cc(C2CC3CCC2N3)cnc1Cl (stereo unspecified),Ki,[2],0.025 nM
same,ED50,[3],8 µg/kg
same,ED50,[4],9 µg/kg
O=c1ccc(C2CC3CCC2N3)c[nH]1 (stereo unspecified),Ki,[9],~100 nM
same,Ki,[10],> 100 nM
same,Ki,[11],> 100 nM
CCN1C2CCC1C(c1ccc(Cl)nc1)C2 (racemic),Ki,[12],13.6 nM
CN1[C@@H]2CC[C@H]1[C@H](c1ccc(Cl)nc1)C2,Ki,[13],0.26 nM
Clc1ccc([C@H]2C[C@@H]3CC[C@H]2N3)cn1 [(-)-EPIBATIDINE],ED50,[14],6.1 µg/kg
same,ED50,[15],1.8 µg/kg
same,ED50,[3],6 µg/kg
same,ED50,[4],4 µg/kg
same,ED50,[16],1 µg/kg
same,ED50,[17],9 µg/kg
Fc1ncc([C@H]2C[C@@H]3CC[C@H]2N3)cc1-c1ccccc1,Ki,[2],0.26 nM
same,inhibition in vivo at 15 mg/kg,[18],5%
same,AD50,[19],80 µg/kg
same,inhibition in vivo at 15 mg/kg,[20],10%
same,AD50,[21],700 µg/kg
Fc1ncc(C2CC3CCC2N3)cc1-c1ccccc1 (racemic),Ki,[2],0.24 nM
same,inhibition in vivo at 15 mg/kg,[18],3%
same,AD50,[19],500 µg/kg
same,inhibition in vivo at 15 mg/kg,[20],4%
same,AD50,[21],1200 µg/kg
Nc1ccc(C2CC3CCC2N3)cn1 (stereo unspecified),EC50,[22],7600 nM
same,Activity,[23],57%
same,Max,[6],41%
same,Ki,[24],4.3 nM
same,Ki,[9],0.35 nM
same,Max,[7],82%
same,Ki,[10],0.077 nM
same,Max,[8],29%
same,EC50,[25],3240 nM
same,Ki,[26],3.5 nM
same,Ki,[27],7.2 nM
same,EC50,[28],1840 nM
same,Ki,[11],0.062 nM
Clc1ccc([C@@H]2C[C@H]3CC[C@@H]2N3)cn1 [(+)-EPIBATIDINE],ED50,[14],6.6 µg/kg
same,ED50,[15],1.2 µg/kg
same,ED50,[16],0.9 µg/kg
same,ED50,[17],7 µg/kg
"CCCN1C2CCC1C(c1ccc(Cl)nc1)C2 (single isomer, unassigned; (-))",Ki,[13],10.8 nM
Brc1ccc(C2CC3CCC2N3)cn1 (stereo unspecified),EC50,[22],94 nM
same,Max,[6],102%
same,Ki,[24],0.044 nM
same,Ki,[9],0.01 nM
same,Max,[7],82%
same,Ki,[10],0.004 nM
same,Max,[8],65%
same,EC50,[25],189 nM
same,Ki,[26],0.055 nM
same,Ki,[27],0.22 nM
same,EC50,[28],20 nM
same,Ki,[11],0.013 nM
Ic1ccc(C2CC3CCC2N3)cn1 (stereo unspecified),Ki,[2],0.09 nM
CN1[C@H]2CC[C@@H]1[C@@H](c1ccc(Cl)nc1)C2,ED50,[3],9 µg/kg
same,Ki,[13],0.11 nM
CC(=O)N1C2CCC1C(c1ccc(Cl)nc1)C2 (stereo unspecified),ED50,[3],> 1000 µg/kg
Clc1cc(C2CC3CCC2N3)cnc1Cl (stereo unspecified),Ki,[2],0.014 nM
same,ED50,[3],50 µg/kg
same,ED50,[4],30 µg/kg
same,Ki,[5],1.12 nM
Fc1ccc(C2CC3CCC2N3)cn1 (stereo unspecified),Ki,[29],0.037 nM
same,EC50,[22],254 nM
same,Max,[6],131%
same,Ki,[24],0.48 nM
same,Ki,[9],0.0092 nM
same,Max,[7],40%
same,Ki,[10],0.0038 nM
same,Max,[8],41%
same,EC50,[25],319 nM
same,Ki,[26],1.2 nM
same,Ki,[27],2.1 nM
same,EC50,[28],239 nM
same,Ki,[11],0.0024 nM
Cc1ccc(C2CC3CCC2N3)cn1 (stereo unspecified),Ki,[13],0.13 nM
Clc1ncc(C2CC3CCC2N3)cc1I (stereo unspecified),Ki,[2],0.008 nM
same,ED50,[3],240 µg/kg
same,ED50,[4],140 µg/kg
same,Activity,[30],0%
same,Activity,[31],4%
Clc1ncc(C2CC3CCC2N3)cc1Br (stereo unspecified),ED50,[3],30 µg/kg
same,ED50,[4],20 µg/kg
same,Ki,[5],152 nM
c1cncc(C2CC3CCC2N3)c1 (stereo unspecified) [DESCHLOROEPIBATIDINE],EC50,[22],3630 nM
same,Max,[6],147%
same,Ki,[24],3.2 nM
same,Ki,[9],0.0085 nM
same,Max,[7],61%
same,Ki,[10],0.0031 nM
same,Max,[8],112%
same,EC50,[25],702 nM
same,Ki,[26],3.3 nM
same,Ki,[27],11 nM
same,EC50,[28],982 nM
same,Ki,[11],0.028 nM
[N-]=[N+]=Nc1cc(C2CC3CCC2N3)cnc1Cl (stereo unspecified) [AZIDOEPIBATIDINE],Ki,[2],0.027 nM
same,Ki,[5],9.7 nM
CN(C)c1ccc(C2CC3CCC2N3)cn1 (stereo unspecified),Activity,[32],10%
same,Ki,[9],> 100 nM
same,Ki,[10],> 100 nM
same,Ki,[11],> 100 nM
Fc1ncc([C@@H]2C[C@H]3CC[C@@H]2N3)cc1-c1ccccc1,Ki,[2],0.24 nM
same,inhibition in vivo at 15 mg/kg,[18],7%
same,AD50,[19],1000 µg/kg
same,inhibition in vivo at 15 mg/kg,[20],8%
same,AD50,[21],2400 µg/kg
O=S(=O)(OC(F)(F)F)c1ccc(C2CC3CCC2N3)cn1 (stereo unspecified),Ki,[9],~100 nM
same,Ki,[10],~100 nM
same,Ki,[11],> 10 nM
Clc1ncc(C2CC3CCC2N3)cc1-c1ccccc1 (stereo unspecified),ED50,[3],700 µg/kg
same,ED50,[4],1000 µg/kg
Clc1ccc(C2CC3CCC2N3)cn1 (stereo unspecified) [EPIBATIDINE],ED50,[3],> 1000 µg/kg
same,Max,[6],71%
same,Max,[7],39%
same,ED50,[33],6 µg/kg
same,Max,[8],58%
same,ED50,[34],4 µg/kg
